Experimental data as given in patent US9796711B2, “Substituted pyrazolo[3,4-b]pyridin-6-carboxylic acids and method of use” (AbbVie S.àr.l., priority 2015, dated 2017).

Experiments:
[1] = molecular target: T1, ΔF508-CFTR (Homo sapiens, UniProt P13569, DEL508-508); assay: CFTR cell surface levels using HRP-tagged ΔF508-CFTR expressing CFBE cells, intrinsic corrector capacity; type: cell-based; conditions: HRP-tagged ΔF508-CFTR CFBE41o- cells, compounds alone (intrinsic corrector capacity), 20 hours at 33° C.; for % Activation: positive control 3 μM corrector; for EC50: read-out: EC50
T1 construct: host or cells: CFBE41o-, doxycycline-inducible
Procedure, shortened: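 Here the cells express ΔF508-CFTR with horseradish peroxidase inserted in extracellular loop 4, so only rescued channel at the surface gives luminescent signal. Compounds act on their own, 20 h at the reduced temperature of 33 °C; values are percent activity relative to DMSO and a 3 μM corrector.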

[2] = molecular target: T1, ΔF508-CFTR; assay: CFTR cell surface levels using HRP-tagged ΔF508-CFTR expressing CFBE cells, in the presence of a co-corrector; type: cell-based; conditions: HRP-tagged ΔF508-CFTR expressing CFBE cells, in the presence of 3 μM co-corrector; for EC50: read-out: EC50
Procedure, shortened: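 Cells were seeded with 0.5 μg/mL doxycycline and held 68 h at 37 °C. Test compounds plus 3 μM co-corrector (final 0.1% DMSO) were then added for 20 h at 33 °C. Washed cells received HRP substrate, and luminescence was normalized between DMSO and 3 μM co-corrector controls.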

T1 sequence (P13569 with tags, fused parts or gaps DEL508-508): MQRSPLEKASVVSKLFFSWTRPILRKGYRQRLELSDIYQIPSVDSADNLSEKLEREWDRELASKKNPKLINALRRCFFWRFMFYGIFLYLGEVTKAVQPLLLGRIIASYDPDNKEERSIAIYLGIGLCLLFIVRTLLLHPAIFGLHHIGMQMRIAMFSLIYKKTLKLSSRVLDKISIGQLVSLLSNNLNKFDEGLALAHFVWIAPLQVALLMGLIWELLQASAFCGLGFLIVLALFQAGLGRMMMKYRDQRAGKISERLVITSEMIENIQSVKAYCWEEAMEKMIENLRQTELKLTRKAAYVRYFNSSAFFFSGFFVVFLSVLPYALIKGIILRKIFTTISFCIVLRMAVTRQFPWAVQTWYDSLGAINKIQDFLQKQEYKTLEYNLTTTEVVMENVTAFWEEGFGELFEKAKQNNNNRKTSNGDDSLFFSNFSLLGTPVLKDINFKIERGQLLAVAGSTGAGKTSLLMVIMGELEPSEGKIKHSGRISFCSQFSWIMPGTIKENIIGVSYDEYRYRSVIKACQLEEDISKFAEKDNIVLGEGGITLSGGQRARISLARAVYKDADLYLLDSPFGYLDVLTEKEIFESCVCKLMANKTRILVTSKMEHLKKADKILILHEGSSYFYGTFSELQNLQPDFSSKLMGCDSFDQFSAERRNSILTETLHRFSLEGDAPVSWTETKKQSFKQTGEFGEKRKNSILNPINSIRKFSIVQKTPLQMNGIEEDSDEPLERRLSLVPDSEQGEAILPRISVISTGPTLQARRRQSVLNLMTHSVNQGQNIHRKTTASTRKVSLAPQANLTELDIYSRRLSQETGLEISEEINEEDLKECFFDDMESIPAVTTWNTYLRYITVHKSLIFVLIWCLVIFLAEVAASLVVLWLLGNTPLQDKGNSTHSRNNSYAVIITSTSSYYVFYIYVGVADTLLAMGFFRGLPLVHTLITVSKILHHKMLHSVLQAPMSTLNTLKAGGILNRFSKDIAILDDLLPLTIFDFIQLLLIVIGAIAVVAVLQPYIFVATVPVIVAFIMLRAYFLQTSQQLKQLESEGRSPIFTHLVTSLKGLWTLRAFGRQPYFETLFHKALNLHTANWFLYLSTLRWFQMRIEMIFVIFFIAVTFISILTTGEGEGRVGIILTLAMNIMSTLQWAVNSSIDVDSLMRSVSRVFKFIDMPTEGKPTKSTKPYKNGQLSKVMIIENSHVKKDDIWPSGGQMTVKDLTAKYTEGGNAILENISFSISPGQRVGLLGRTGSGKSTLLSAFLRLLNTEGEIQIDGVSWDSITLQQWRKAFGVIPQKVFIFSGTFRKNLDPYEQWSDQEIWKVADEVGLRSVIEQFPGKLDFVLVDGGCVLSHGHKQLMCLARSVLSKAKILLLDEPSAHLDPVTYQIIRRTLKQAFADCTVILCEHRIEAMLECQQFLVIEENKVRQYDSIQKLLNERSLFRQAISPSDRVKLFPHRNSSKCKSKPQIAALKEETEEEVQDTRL

For Cc1nn(-c2ccccc2)c2nc(C(=O)O)cc(OC3COC3)c12 [compound 341, 3-methyl-4-[(oxetan-3-yl)oxy]-1-phenyl-1H-pyrazolo[3,4-b]pyridine-6-carboxylic acid], which “% Activation” value [1] is on record?
The value was 25.115%.

What about the EC50 [1] of the same compound?
Its EC50 is 4170 nM.

And the “% Activation” value [2]?
The value was 149.55%.

What about the EC50 [2] of the same compound?
The EC50 was 4090 nM.

How did the “% Activation” value [1] turn out when Cc1nn(-c2ccccc2)c2nc(C(=O)O)cc(OCCN3CCCC3)c12 [compound 342, 3-methyl-1-phenyl-4-[2-(pyrrolidin-1-yl)ethoxy]-1H-pyrazolo[3,4-b]pyridine-6-carboxylic acid] was run?
Its value is 19.4%.

And the EC50 [1]?
The EC50 was 7500 nM.

And the “% Activation” value [2]?
The value was 138.5%.

And the EC50 [2]?
Its EC50 is 3370 nM.

Which results are given for Cc1nn(-c2ccccc2)c2nc(C(=O)O)cc(O[C@@H]3CCCN(C)C3)c12 [compound 343, 3-methyl-4-{[(3R)-1-methylpiperidin-3-yl]oxy}-1-phenyl-1H-pyrazolo[3,4-b]pyridine-6-carboxylic acid]?
% Activation [1]: 11.085%; EC50 [1]: 7500 nM; % Activation [2]: 104.7%; EC50 [2]: 7500 nM

What does the source list for Cc1nn(-c2ccccc2)c2nc(C(=O)O)cc(OC3CC4(COC4)C3)c12 [compound 344, 3-methyl-4-[(2-oxaspiro[3.3]heptan-6-yl)oxy]-1-phenyl-1H-pyrazolo[3,4-b]pyridine-6-carboxylic acid]?
% Activation [1]: 69.225%; EC50 [1]: 2510 nM; % Activation [2]: 218.25%; EC50 [2]: 1770 nM

Which results are given for Cc1nn(-c2ccccc2)c2nc(C(=O)O)cc(O[C@H]3C[C@H](N4CCCCC4)C3)c12 [compound 345, 3-methyl-1-phenyl-4-{[trans-3-(piperidin-1-yl)cyclobutyl]oxy}-1H-pyrazolo[3,4-b]pyridine-6-carboxylic acid]?
% Activation [1]: 23.411%; EC50 [1]: 4170 nM; % Activation [2]: 129.4%; EC50 [2]: 4170 nM

How did the “% Activation” value [1] turn out when Cc1nn(-c2ccccc2)c2nc(C(=O)O)cc(O[C@H]3C[C@@H](N4CCCCC4)C3)c12 [compound 346, 3-methyl-1-phenyl-4-{[cis-3-(piperidin-1-yl)cyclobutyl]oxy}-1H-pyrazolo[3,4-b]pyridine-6-carboxylic acid] was run?
The value was 20.555%.

And the EC50 [1]?
Its EC50 is 7500 nM.

What about the “% Activation” value [2] of the same compound?
The value was 151.2%.

And the EC50 [2]?
The EC50 was 4170 nM.

For Cc1nn(-c2ccccc2)c2nc(C(=O)O)cc(OCCC3CC(F)(F)C3)c12 [compound 347, 4-[2-(3,3-difluorocyclobutyl)ethoxy]-3-methyl-1-phenyl-1H-pyrazolo[3,4-b]pyridine-6-carboxylic acid], which “% Activation” value [1] is on record?
The value was 79.835%.

What about the EC50 [1] of the same compound?
Its EC50 is 1410 nM.

What about the “% Activation” value [2] of the same compound?
The value was 259.55%.

And the EC50 [2]?
The EC50 was 1410 nM.

Which results are given for Cc1cccc(-n2nc(C(C)C)c3c(N4CCC(CF)CC4)cc(C(=O)O)nc32)c1 [compound 348, 4-[4-(fluoromethyl)piperidin-1-yl]-1-(3-methylphenyl)-3-(propan-2-yl)-1H-pyrazolo[3,4-b]pyridine-6-carboxylic acid]?
% Activation [1]: 217.2%; EC50 [1]: 553 nM; % Activation [2]: 410.3%; EC50 [2]: 370 nM

Which results are given for O=C(O)c1cc(-c2ccc(N3CCOCC3)cc2)c2c(C3CCC3)nn(-c3cccc(F)c3)c2n1 [compound 349, 3-cyclobutyl-1-(3-fluorophenyl)-4-[4-(morpholin-4-yl)phenyl]-1H-pyrazolo[3,4-b]pyridine-6-carboxylic acid]?
% Activation [1]: 208.2%; EC50 [1]: 460 nM; % Activation [2]: 382.73%; EC50 [2]: 236 nM

Which “% Activation” value [1] does the source give for O=C(O)c1cc(-c2ccc(N3CCOCC3)cc2)c2c(C3CCC3)nn(-c3ccc(F)c(F)c3)c2n1 [compound 350, 3-cyclobutyl-1-(3,4-difluorophenyl)-4-[4-(morpholin-4-yl)phenyl]-1H-pyrazolo[3,4-b]pyridine-6-carboxylic acid] here?
Its value is 211%.

And the EC50 [1]?
Its EC50 is 426 nM.

And the “% Activation” value [2]?
Its value is 397.5%.

And the EC50 [2]?
The EC50 was 316 nM.

How did the “% Activation” value [1] turn out when CC(C)c1nn(C2CCCCC2)c2nc(C(=O)O)cc(-c3ccn(C)c3)c12 [compound 351, 1-cyclohexyl-4-(1-methyl-1H-pyrrol-3-yl)-3-(propan-2-yl)-1H-pyrazolo[3,4-b]pyridine-6-carboxylic acid] was run?
Its value is 84.055%.

What about the EC50 [1] of the same compound?
The EC50 was 1610 nM.

And the “% Activation” value [2]?
The value was 256.6%.

What about the EC50 [2] of the same compound?
Its EC50 is 1520 nM.

Which results are given for Cc1nn(C)cc1-c1cc(C(=O)O)nc2c1c(C(C)C)nn2C1CCCCC1 [compound 352, 1-cyclohexyl-4-(1,3-dimethyl-1H-pyrazol-4-yl)-3-(propan-2-yl)-1H-pyrazolo[3,4-b]pyridine-6-carboxylic acid]?
% Activation [1]: 55.175%; EC50 [1]: 1510 nM; % Activation [2]: 210.15%; EC50 [2]: 1430 nM

O=C(O)c1cc(-c2ccc(N3CCOCC3)cc2)c2c(C3CCC3)nn(-c3cc(F)cc(F)c3)c2n1 [compound 353, 3-cyclobutyl-1-(3,5-difluorophenyl)-4-[4-(morpholin-4-yl)phenyl]-1H-pyrazolo[3,4-b]pyridine-6-carboxylic acid] was tested. Which “% Activation” value [1] did it give?
Its value is 224.1%.

What about the EC50 [1] of the same compound?
The EC50 was 506 nM.

And the “% Activation” value [2]?
Its value is 438.65%.

And the EC50 [2]?
Its EC50 is 459 nM.

What does the source list for O=C(O)c1cc(-c2ccc(N3CCOCC3)cc2)c2c(C3CCC3)nn(-c3cccc(C(F)(F)F)c3)c2n1 [compound 354, 3-cyclobutyl-4-[4-(morpholin-4-yl)phenyl]-1-[3-(trifluoromethyl)phenyl]-1H-pyrazolo[3,4-b]pyridine-6-carboxylic acid]?
% Activation [1]: 212.07%; EC50 [1]: 450 nM; % Activation [2]: 429.9%; EC50 [2]: 323 nM

With Cc1ccc(-n2nc(C3CCC3)c3c(-c4ccc(N5CCOCC5)cc4)cc(C(=O)O)nc32)cc1F [compound 355, 3-cyclobutyl-1-(3-fluoro-4-methylphenyl)-4-[4-(morpholin-4-yl)phenyl]-1H-pyrazolo[3,4-b]pyridine-6-carboxylic acid] as the compound, how does the “% Activation” value [1] read?
Its value is 180.03%.

What about the EC50 [1] of the same compound?
The EC50 was 740 nM.

What about the “% Activation” value [2] of the same compound?
The value was 360.63%.

What about the EC50 [2] of the same compound?
Its EC50 is 556 nM.

Which results are given for O=C(O)c1cc(-c2ccc(N3CCOCC3)cc2)c2c(C3CCC3)nn(-c3ccc(C(F)(F)F)cc3)c2n1 [compound 356, 3-cyclobutyl-4-[4-(morpholin-4-yl)phenyl]-1-[4-(trifluoromethyl)phenyl]-1H-pyrazolo[3,4-b]pyridine-6-carboxylic acid]?
% Activation [1]: 152.8%; EC50 [1]: 489 nM; % Activation [2]: 331.9%; EC50 [2]: 428 nM

For CN(C)c1ccc(-n2nc(C3CCC3)c3c(-c4ccc(N5CCOCC5)cc4)cc(C(=O)O)nc32)cc1 [compound 357, 3-cyclobutyl-1-[4-(dimethylamino)phenyl]-4-[4-(morpholin-4-yl)phenyl]-1H-pyrazolo[3,4-b]pyridine-6-carboxylic acid], which “% Activation” value [1] is on record?
The value was 113.47%.

What about the EC50 [1] of the same compound?
Its EC50 is 885 nM.

What about the “% Activation” value [2] of the same compound?
Its value is 274.8%.

What about the EC50 [2] of the same compound?
Its EC50 is 806 nM.

Which “% Activation” value [1] does the source give for COC1CCN(c2cc(C(=O)O)nc3c2c(C2CCC2)nn3-c2ccccc2)CC1 [compound 358, 3-cyclobutyl-4-(4-methoxypiperidin-1-yl)-1-phenyl-1H-pyrazolo[3,4-b]pyridine-6-carboxylic acid] here?
The value was 205.07%.

What about the EC50 [1] of the same compound?
Its EC50 is 410 nM.

What about the “% Activation” value [2] of the same compound?
The value was 370.47%.

What about the EC50 [2] of the same compound?
The EC50 was 206 nM.

What does the source list for Cc1cccc(-n2nc(C(C)C)c3c(N4CCC5(CC4)CN(C)C(=O)O5)cc(C(=O)O)nc32)c1 [compound 359, 4-(3-methyl-2-oxo-1-oxa-3,8-diazaspiro[4.5]decan-8-yl)-1-(3-methylphenyl)-3-(propan-2-yl)-1H-pyrazolo[3,4-b]pyridine-6-carboxylic acid]?
% Activation [1]: 142%; EC50 [1]: 2040 nM; % Activation [2]: 349.55%; EC50 [2]: 2180 nM

Cc1cccc(-n2nc(C(C)C)c3c(N4CCC5(CCCCC5)CC4)cc(C(=O)O)nc32)c1 [compound 360, 4-(3-azaspiro[5.5]undecan-3-yl)-1-(3-methylphenyl)-3-(propan-2-yl)-1H-pyrazolo[3,4-b]pyridine-6-carboxylic acid] was tested. Which “% Activation” value [1] did it give?
The value was 96.335%.

And the EC50 [1]?
The EC50 was 1170 nM.

What about the “% Activation” value [2] of the same compound?
The value was 293%.

And the EC50 [2]?
Its EC50 is 1030 nM.

For CC(C)c1nn(C2CCCCC2)c2nc(C(=O)O)cc(-c3cnn(C(C)C)c3)c12 [compound 361, 1-cyclohexyl-3-(propan-2-yl)-4-[1-(propan-2-yl)-1H-pyrazol-4-yl]-1H-pyrazolo[3,4-b]pyridine-6-carboxylic acid], which “% Activation” value [1] is on record?
The value was 80.015%.

And the EC50 [1]?
Its EC50 is 1540 nM.

And the “% Activation” value [2]?
Its value is 227.65%.

And the EC50 [2]?
The EC50 was 1160 nM.

With CC(C)c1nn(C2CCCCC2)c2nc(C(=O)O)cc(-c3cccn3C)c12 [compound 362, 1-cyclohexyl-4-(1-methyl-1H-pyrrol-2-yl)-3-(propan-2-yl)-1H-pyrazolo[3,4-b]pyridine-6-carboxylic acid] as the compound, how does the “% Activation” value [1] read?
Its value is 44.405%.

What about the EC50 [1] of the same compound?
Its EC50 is 2030 nM.

And the “% Activation” value [2]?
The value was 170.85%.

What about the EC50 [2] of the same compound?
Its EC50 is 1800 nM.

How did the “% Activation” value [1] turn out when CC(C)c1nn(C2CCCCC2)c2nc(C(=O)O)cc(-c3cn[nH]c3)c12 [compound 363, 1-cyclohexyl-3-(propan-2-yl)-4-(1H-pyrazol-4-yl)-1H-pyrazolo[3,4-b]pyridine-6-carboxylic acid] was run?
The value was 56.625%.

And the EC50 [1]?
The EC50 was 2470 nM.

What about the “% Activation” value [2] of the same compound?
The value was 187.2%.

What about the EC50 [2] of the same compound?
Its EC50 is 2330 nM.

How did the “% Activation” value [1] turn out when CC(C)c1nn(C2CCCCC2)c2nc(C(=O)O)cc(-c3ccc4c(c3)CNC4=O)c12 [compound 364, 1-cyclohexyl-4-(1-oxo-2,3-dihydro-1H-isoindol-5-yl)-3-(propan-2-yl)-1H-pyrazolo[3,4-b]pyridine-6-carboxylic acid] was run?
The value was 118.28%.

What about the EC50 [1] of the same compound?
Its EC50 is 2280 nM.

What about the “% Activation” value [2] of the same compound?
The value was 282.3%.

What about the EC50 [2] of the same compound?
Its EC50 is 1640 nM.
